The supplement of paper PMC9386025

What was measured:
Assay in all cases: drug sensitivity score (DSS) (DSS (dimensionless)); higher = more sensitive (stronger drug response)
FIMM-PDC1 = patient-derived ovarian cancer cells; conditions: genetic perturbation: none (patient-derived cell culture)
Procedure, shortened: (§1)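 Cells, either patient-derived cultures or ovarian cancer cell lines given 100 ng/ml doxycycline for no less than three days to induce shRNA, went into 384-well plates at 1 000 – 1 500 per well over drugs pre-plated in five concentrations across a 10,000-fold range. The plates were held for three days at 37 °C with 5.0 % CO2. Cell viability was then taken from CellTiter-Glo luminescence on a PHERAstar FS. For each drug, a drug sensitivity score from its dose-response curve was obtained by a method described earlier.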

FIMM-PDC3 = patient-derived ovarian cancer cells; conditions: genetic perturbation: none (patient-derived cell culture)
Procedure, shortened: as §1

FIMM-PDC4 = patient-derived ovarian cancer cells; conditions: genetic perturbation: none (patient-derived cell culture)
Procedure, shortened: as §1

FIMM-PDC5 = patient-derived ovarian cancer cells; conditions: genetic perturbation: none (patient-derived cell culture)
Procedure, shortened: as §1

FIMM-PDC6 = patient-derived ovarian cancer cells; conditions: genetic perturbation: none (patient-derived cell culture)
Procedure, shortened: as §1

FIMM-PDC7 = patient-derived ovarian cancer cells; conditions: genetic perturbation: none (patient-derived cell culture)
Procedure, shortened: as §1

JHOS2 = test system: JHOS2
Procedure, shortened: as §1

Kuramochi = test system: Kuramochi
Procedure, shortened: as §1

OVSAHO = test system: OVSAHO
Procedure, shortened: as §1

[1] = genetic perturbation: DOX-induced PTK7 shRNA knockdown
[2] = genetic perturbation: DOX-induced control shRNA

For Cc1cc(-c2nc(-c3ccc(OC(F)(F)F)cc3)no2)nn1Cc1ccnc(N2CCN(C3CC3)CC2)c1 [BAY 87-2243], the drug sensitivity score (FIMM-PDC1) was < 0, the drug sensitivity score (FIMM-PDC3) was 0.9 and the drug sensitivity score (FIMM-PDC4) was 1.5. For the same compound, the drug sensitivity score (FIMM-PDC5) was < 0, the drug sensitivity score (FIMM-PDC6) was 8.3 and the drug sensitivity score (FIMM-PDC7) was < 0. For the same compound, the drug sensitivity score (JHOS2; [1]) was 1.3, the drug sensitivity score (JHOS2; [2]) was < 0 and the drug sensitivity score (Kuramochi; [1]) was 5.7. For the same compound, the drug sensitivity score (Kuramochi; [2]) was < 0, the drug sensitivity score (OVSAHO; [1]) was < 0 and the drug sensitivity score (OVSAHO; [2]) was 3.5.
For CC[C@@H]1C(=O)N(C)c2cnc(Nc3ccc(C(=O)NC4CCN(C)CC4)cc3OC)nc2N1C1CCCC1 [BI 2536], the drug sensitivity score (FIMM-PDC1) was 6.05, the drug sensitivity score (FIMM-PDC3) was 7.5 and the drug sensitivity score (FIMM-PDC4) was 6.1. For the same compound, the drug sensitivity score (FIMM-PDC5) was 19.4, the drug sensitivity score (FIMM-PDC6) was 0.1 and the drug sensitivity score (FIMM-PDC7) was 3.5. For the same compound, the drug sensitivity score (JHOS2; [1]) was 16, the drug sensitivity score (JHOS2; [2]) was 4.6 and the drug sensitivity score (Kuramochi; [1]) was 10.7. The drug sensitivity score (Kuramochi; [2]) was 3, the drug sensitivity score (OVSAHO; [1]) was 5.9 and the drug sensitivity score (OVSAHO; [2]) was 8.8.
For COc1c(C)cnc(Cn2cnc3c(Cl)nc(N)nc32)c1C [BIIB021], the drug sensitivity score (FIMM-PDC1) was 12.8, the drug sensitivity score (FIMM-PDC3) was 12.1 and the drug sensitivity score (FIMM-PDC4) was 18.8. The drug sensitivity score (FIMM-PDC5) was 18, the drug sensitivity score (FIMM-PDC6) was 13.5 and the drug sensitivity score (FIMM-PDC7) was 14.6. The drug sensitivity score (JHOS2; [1]) was 16.5, the drug sensitivity score (JHOS2; [2]) was 12.6 and the drug sensitivity score (Kuramochi; [1]) was 10.4. For the same compound, the drug sensitivity score (Kuramochi; [2]) was 0.9, the drug sensitivity score (OVSAHO; [1]) was < 0 and the drug sensitivity score (OVSAHO; [2]) was 8.1.
Compound O=C(Nc1cccc(Nc2ncc(Br)c(NCCc3cnc[nH]3)n2)c1)N1CCCC1 [BX-912] has a drug sensitivity score (FIMM-PDC1) of 2.85, a drug sensitivity score (FIMM-PDC3) of 1.2 and a drug sensitivity score (FIMM-PDC4) of 3.9. The drug sensitivity score (FIMM-PDC5) was 6.9, the drug sensitivity score (FIMM-PDC6) was 2.2 and the drug sensitivity score (FIMM-PDC7) was 9.2. For the same compound, the drug sensitivity score (JHOS2; [1]) was 5.5, the drug sensitivity score (JHOS2; [2]) was 2.4 and the drug sensitivity score (Kuramochi; [1]) was 2.35. It also gave a drug sensitivity score (Kuramochi; [2]) of 3.7, a drug sensitivity score (OVSAHO; [1]) of 3.8 and a drug sensitivity score (OVSAHO; [2]) of 2.2.
O=C(/C=C/c1cccc(S(=O)(=O)Nc2ccccc2)c1)NO [Belinostat] showed a drug sensitivity score (FIMM-PDC1) of 9.65, a drug sensitivity score (FIMM-PDC3) of 14.1 and a drug sensitivity score (FIMM-PDC4) of 5.5. The drug sensitivity score (FIMM-PDC5) was 12.3, the drug sensitivity score (FIMM-PDC6) was 13 and the drug sensitivity score (FIMM-PDC7) was 10. For the same compound, the drug sensitivity score (JHOS2; [1]) was 13, the drug sensitivity score (JHOS2; [2]) was 9.4 and the drug sensitivity score (Kuramochi; [1]) was 17.6. It also gave a drug sensitivity score (Kuramochi; [2]) of 7.6, a drug sensitivity score (OVSAHO; [1]) of 15.2 and a drug sensitivity score (OVSAHO; [2]) of 9.7.
For Cc1sc2c(c1C)C(c1ccc(Cl)cc1)=N[C@@H](CC(=O)Nc1ccc(O)cc1)c1nnc(C)n1-2 [Birabresib], the drug sensitivity score (FIMM-PDC1) was 4.2, the drug sensitivity score (FIMM-PDC3) was 4.3 and the drug sensitivity score (FIMM-PDC4) was 5.6. The drug sensitivity score (FIMM-PDC5) was 12.7, the drug sensitivity score (FIMM-PDC6) was 3.7 and the drug sensitivity score (FIMM-PDC7) was 8.3. The drug sensitivity score (JHOS2; [1]) was 9.6, the drug sensitivity score (JHOS2; [2]) was 8.1 and the drug sensitivity score (Kuramochi; [1]) was 13.9. It also gave a drug sensitivity score (Kuramochi; [2]) of 4.8, a drug sensitivity score (OVSAHO; [1]) of 7.3 and a drug sensitivity score (OVSAHO; [2]) of 13.4.
With CC[C@H](NC(=O)[C@H](C)NC)C(=O)N1C[C@@H](O)C[C@H]1Cc1c(-c2[nH]c3cc(F)ccc3c2C[C@@H]2C[C@H](O)CN2C(=O)[C@H](CC)NC(=O)[C@H](C)NC)[nH]c2cc(F)ccc12 [Birinapant] the drug sensitivity score (FIMM-PDC1) was 6.4, the drug sensitivity score (FIMM-PDC3) was 11.7 and the drug sensitivity score (FIMM-PDC4) was < 0. For the same compound, the drug sensitivity score (FIMM-PDC5) was 0.6, the drug sensitivity score (FIMM-PDC6) was 4.1 and the drug sensitivity score (FIMM-PDC7) was < 0. The drug sensitivity score (JHOS2; [1]) was 17.4, the drug sensitivity score (JHOS2; [2]) was 16.7 and the drug sensitivity score (Kuramochi; [1]) was 3.9. For the same compound, the drug sensitivity score (Kuramochi; [2]) was 3.6, the drug sensitivity score (OVSAHO; [1]) was 5.7 and the drug sensitivity score (OVSAHO; [2]) was 2.1.
CC(C)C[C@H](NC(=O)[C@H](Cc1ccccc1)NC(=O)c1cnccn1)B(O)O [Bortezomib] showed a drug sensitivity score (FIMM-PDC1) of 29.1, a drug sensitivity score (FIMM-PDC3) of 30.6 and a drug sensitivity score (FIMM-PDC4) of 28.8. For the same compound, the drug sensitivity score (FIMM-PDC5) was 27.4, the drug sensitivity score (FIMM-PDC6) was 31.8 and the drug sensitivity score (FIMM-PDC7) was 31.9. The drug sensitivity score (JHOS2; [1]) was 25.7, the drug sensitivity score (JHOS2; [2]) was 23.6 and the drug sensitivity score (Kuramochi; [1]) was 16.3. It also gave a drug sensitivity score (Kuramochi; [2]) of 20.1, a drug sensitivity score (OVSAHO; [1]) of 24.2 and a drug sensitivity score (OVSAHO; [2]) of 11.6.
COc1cc(Nc2c(C#N)cnc3cc(OCCCN4CCN(C)CC4)c(OC)cc23)c(Cl)cc1Cl [Bosutinib] was tested, and the drug sensitivity score (FIMM-PDC1) was 7.4, the drug sensitivity score (FIMM-PDC3) was 10.5 and the drug sensitivity score (FIMM-PDC4) was 13.7. It also gave a drug sensitivity score (FIMM-PDC5) of 14.3, a drug sensitivity score (FIMM-PDC6) of 12.3 and a drug sensitivity score (FIMM-PDC7) of 6.5. For the same compound, the drug sensitivity score (JHOS2; [1]) was 9.3, the drug sensitivity score (JHOS2; [2]) was 10.9 and the drug sensitivity score (Kuramochi; [1]) was 10.6. For the same compound, the drug sensitivity score (Kuramochi; [2]) was 6.4, the drug sensitivity score (OVSAHO; [1]) was 12.1 and the drug sensitivity score (OVSAHO; [2]) was 8.7.
Compound Nc1cc(C(F)(F)F)c(-c2cc(N3CCOCC3)nc(N3CCOCC3)n2)cn1 [Buparlisib] has a drug sensitivity score (FIMM-PDC1) of 5.4, a drug sensitivity score (FIMM-PDC3) of 7.1 and a drug sensitivity score (FIMM-PDC4) of 9.7. For the same compound, the drug sensitivity score (FIMM-PDC5) was 12.2, the drug sensitivity score (FIMM-PDC6) was 7.8 and the drug sensitivity score (FIMM-PDC7) was 10.8. The drug sensitivity score (JHOS2; [1]) was 6.4, the drug sensitivity score (JHOS2; [2]) was 4.6 and the drug sensitivity score (Kuramochi; [1]) was 7.25. The drug sensitivity score (Kuramochi; [2]) was 4.6, the drug sensitivity score (OVSAHO; [1]) was 7.2 and the drug sensitivity score (OVSAHO; [2]) was 6.6.
CCN1C(=O)CNc2ncc(-c3ccc(-c4nc[nH]n4)nc3C)nc21 [CC-115] was tested, and the drug sensitivity score (FIMM-PDC1) was 5.8, the drug sensitivity score (FIMM-PDC3) was 6.6 and the drug sensitivity score (FIMM-PDC4) was 10. The drug sensitivity score (FIMM-PDC5) was 14, the drug sensitivity score (FIMM-PDC6) was 9.5 and the drug sensitivity score (FIMM-PDC7) was 17.4. For the same compound, the drug sensitivity score (JHOS2; [1]) was 6.4, the drug sensitivity score (JHOS2; [2]) was 7.1 and the drug sensitivity score (Kuramochi; [1]) was 6.85. The drug sensitivity score (Kuramochi; [2]) was 7.1, the drug sensitivity score (OVSAHO; [1]) was 10 and the drug sensitivity score (OVSAHO; [2]) was 7.1.
Compound Cc1noc2c1-c1ccccc1C(c1ccc(Cl)cc1)=N[C@H]2CC(N)=O [CPI-0610] has a drug sensitivity score (FIMM-PDC1) of 2.1, a drug sensitivity score (FIMM-PDC3) of 3.7 and a drug sensitivity score (FIMM-PDC4) of 3.9. It also gave a drug sensitivity score (FIMM-PDC5) of 8.7, a drug sensitivity score (FIMM-PDC6) of 3.1 and a drug sensitivity score (FIMM-PDC7) of 5.5. For the same compound, the drug sensitivity score (JHOS2; [1]) was 5.9, the drug sensitivity score (JHOS2; [2]) was 4.2 and the drug sensitivity score (Kuramochi; [1]) was 10.5. For the same compound, the drug sensitivity score (Kuramochi; [2]) was 6.1, the drug sensitivity score (OVSAHO; [1]) was 7 and the drug sensitivity score (OVSAHO; [2]) was 9.5.
With CN(C)c1cc2c(cc1Sc1nc3c(N)nccc3n1CCNCC(C)(C)C)OCO2 [CUDC-305] the drug sensitivity score (FIMM-PDC1) was 11.5, the drug sensitivity score (FIMM-PDC3) was 9.8 and the drug sensitivity score (FIMM-PDC4) was 15.8. For the same compound, the drug sensitivity score (FIMM-PDC5) was 12.8, the drug sensitivity score (FIMM-PDC6) was 11.6 and the drug sensitivity score (FIMM-PDC7) was 12.7. For the same compound, the drug sensitivity score (JHOS2; [1]) was 11.5, the drug sensitivity score (JHOS2; [2]) was 9.9 and the drug sensitivity score (Kuramochi; [1]) was 7.3. For the same compound, the drug sensitivity score (Kuramochi; [2]) was 0.8, the drug sensitivity score (OVSAHO; [1]) was < 0 and the drug sensitivity score (OVSAHO; [2]) was 6.3.
In the case of COc1ccc(-c2nc(N3CCOCC3)c3sc(CN(C)c4ncc(C(=O)NO)cn4)cc3n2)cn1 [CUDC-907], the drug sensitivity score (FIMM-PDC1) is reported as 29.9, the drug sensitivity score (FIMM-PDC3) is reported as 34.3 and the drug sensitivity score (FIMM-PDC4) is reported as 22.7. For the same compound, the drug sensitivity score (FIMM-PDC5) was 34.5, the drug sensitivity score (FIMM-PDC6) was 29.9 and the drug sensitivity score (FIMM-PDC7) was 25.9. It also gave a drug sensitivity score (JHOS2; [1]) of 31.3, a drug sensitivity score (JHOS2; [2]) of 28.1 and a drug sensitivity score (Kuramochi; [1]) of 33.1. For the same compound, the drug sensitivity score (Kuramochi; [2]) was 27.7, the drug sensitivity score (OVSAHO; [1]) was 27.8 and the drug sensitivity score (OVSAHO; [2]) was 31.
Work on CO[C@H]1C(=O)[C@]2(C)[C@@H](OC)C[C@H]3OC[C@@]3(OC(C)=O)[C@H]2[C@H](OC(=O)c2ccccc2)[C@]2(O)C[C@H](OC(=O)[C@H](O)[C@@H](NC(=O)OC(C)(C)C)c3ccccc3)C(C)=C1C2(C)C [Cabazitaxel] yielded a drug sensitivity score (FIMM-PDC1) of 17.4, a drug sensitivity score (FIMM-PDC3) of 21.9 and a drug sensitivity score (FIMM-PDC4) of 23.9. For the same compound, the drug sensitivity score (FIMM-PDC5) was 23.5, the drug sensitivity score (FIMM-PDC6) was 8.7 and the drug sensitivity score (FIMM-PDC7) was 12.7. For the same compound, the drug sensitivity score (JHOS2; [1]) was 20.4, the drug sensitivity score (JHOS2; [2]) was 13.8 and the drug sensitivity score (Kuramochi; [1]) was 19.6. It also gave a drug sensitivity score (Kuramochi; [2]) of 3.8, a drug sensitivity score (OVSAHO; [1]) of 12.3 and a drug sensitivity score (OVSAHO; [2]) of 15.3.
Compound C=CC(=O)Nc1cc2c(Nc3ccc(F)c(Cl)c3)ncnc2cc1OCCCN1CCOCC1 [Canertinib] has a drug sensitivity score (FIMM-PDC1) of 7.4, a drug sensitivity score (FIMM-PDC3) of 15.7 and a drug sensitivity score (FIMM-PDC4) of 20.4. The drug sensitivity score (FIMM-PDC5) was 27.5, the drug sensitivity score (FIMM-PDC6) was 20.8 and the drug sensitivity score (FIMM-PDC7) was 12.1. The drug sensitivity score (JHOS2; [1]) was 8.1, the drug sensitivity score (JHOS2; [2]) was 7.4 and the drug sensitivity score (Kuramochi; [1]) was 8.9. For the same compound, the drug sensitivity score (Kuramochi; [2]) was 8.6, the drug sensitivity score (OVSAHO; [1]) was 8.2 and the drug sensitivity score (OVSAHO; [2]) was 7.6.
